Test results taken from US20110009435A1, “HETERO BICYCLIC CARBOXAMIDE DERIVATIVES AND THEIR PHARMACEUTICAL USE AND COMPOSITIONS” (Pfizer, Inc., priority 2007, published 2011).

Tests used:
Type in all cases: biochemical
Human recombinant MMP-12 = target: T1, Human recombinant MMP-12 (Homo sapiens, UniProt P39900); test: In vitro MMP inhibition assay, MMP-12 catalytic domain (fluorogenic peptide substrate cleavage, Ki); conditions: human MMP-12, catalytic domain (CD); read-out: hMMP Ki 12/CD
T1 construct: The catalytic domain of MMP-12 and MMP-15 enzymes were purchased commercially for these assays; purchased
Method: (§1) Matrix Metalloproteinase inhibitor compounds were analyzed in in vitro MMP Inhibition assays to determine their ability to inhibit the MMP cleavage of peptide substrates. Inhibition constants (Ki) were calculated from the assayed compound-MMP interactions.
(§2) Human recombinant MMP-1, MMP-2, MMP-3, MMP-7, MMP-9, MMP-12, MMP-13, MMP-14 and MMP-15 were used in these assays. The enzymes are prepared following known laboratory procedures. Protocols for the preparation and use of these enzymes are available in the scientific literature. See, e.g., Enzyme Nomenclature (Academic Press, San Diego, Calif., 1992) and the citations therein. See also Frije et al., J. Biol. Chem., 26(24), 16766-73 (1994).
(§3) The catalytic domain of MMP-12 and MMP-15 enzymes were purchased commercially for these assays.
(§4) The fluorogenic, methoxycoumarin-containing polypeptide substrate MCA-ArgProLeuGlyLeuDpaAlaArgGluArgNH2 was used as the MMP substrate in the MMP inhibition assays for human recombinant MMP-1, MMP-2, MMP-7, MMP-9, MMP-12, MMP-13, MMP-14 and MMP-15. Here, “MCA” is 7-methoxycoumarin-4-yl acetyl and “Dpa” is 3-(2,4-dinitrophenyl)-L-2,3-di-aminopropionyl group. In the absence of MMP inhibitory activity, the substrate is cleaved at the Gly-Leu peptide bond. The cleavage separates the highly fluorogenic peptide from the 2,4-dinitrophenyl quencher, resulting in an increase of fluorescent intensity.
(§5) For the human MMP-1, MMP-2, MMP-7, MMP-9, MMP-12, MMP-13, MMP-14 and MMP-15 assays, dilutions of the inhibitors (or salts thereof) were prepared in 100% dimethyl sulfoxide (DMSO). The stock solutions were diluted in Buffer A (100 mM Tris-HCl, 100 mM NaCl, 10 mM CaCl2, 0.005% polyoxyethylene 23 lauryl ether, pH 7.5) to obtain solutions with different compound concentrations, i.e., assay solutions with different concentrations of the assayed MMP inhibitory compound in 1% DMSO. The experiment controls contained the same amount of Buffer A/DMSO as the assayed sample, but contained no inhibitor.
(§6) To determine Ki, the inhibitor samples are incubated at room temperature for 1 hr in the presence of enzyme and then 4 μM of appropriate MMP substrate was added, and samples were analyzed on a Tecan SpectraFlour Plus plate reader. The excitation wavelength is 330 nm, and the emission (fluorescence) wavelength is 420 nm. In the absence of MMP inhibitory activity, the substrate is cleaved at the Gly-Leu bond resulting in an increase of relative fluorescence. Inhibition is observed as a reduced rate of increase in relative fluorescence.
(§7) The inhibitors are analyzed using a single low enzyme concentration with a single substrate concentration fixed at or below the Km. This protocol is a modification of method by Knight et al., FEBS Lett., 296(3), 263-266 (1992). Apparent inhibitory constants are determined by non-linear regression of reaction velocity as a function of inhibitor and enzyme concentration using Morrison's equation, as described by Kuzmic, Anal. Biochem. 286, 45-50 (2000). Modifications were made in the non-linear regression method to allow a common control reaction rate and effective enzyme concentration to be shared between all dose-response relationships on a given assay plate. Since the substrate concentration was chosen to be at or below the Km, the apparent Ki's from this analysis were reported as Ki's without correction for the influence of substrate.

Human recombinant MMP-14 = target: T2, Human recombinant MMP-14 (Homo sapiens, UniProt P50281); test: In vitro MMP inhibition assay, MMP-14 catalytic domain (fluorogenic peptide substrate cleavage, Ki); conditions: human MMP-14, catalytic domain (CD); read-out: hMMP Ki 14/CD
T2 construct: The MMP-14 cDNA may be used to express the catalytic domain enzyme in E. coli inclusion bodies; made in house
Method: as §1, §2
The MMP-14 cDNA may be used to express the catalytic domain enzyme in E. coli inclusion bodies. Then the enzyme is solubilized in urea, purified on a preparative […] reverse phase HPLC column, and refolded in the presence of zinc acetate and purified for use.
as §4, §5, §6
as §7, with “Since the substrate concentration was chosen to be at or below the Km, the apparent Ki's from this analysis were reported as Ki's without correction for the influence of substrate.” left out

Human recombinant MMP-13 = target: T3, Human recombinant MMP-13 (Homo sapiens, UniProt P45452); test: In vitro MMP inhibition assay, MMP-13 (fluorogenic peptide substrate cleavage, Ki); conditions: human MMP-13, full length (FL); read-out: hMMP Ki 13/FL
T3 construct: made in house; host or cells: baculovirus expression (insect cells)
Method: as §1, §2
The MMP-13 may be obtained as a proenzyme from a full-length cDNA clone using baculovirus expression, as described by V. A. Luckow, “Insect Cell Expression Technology,” Protein Engineering: Principles and Practice, pp. 183-218 (edited by J. L. Cleland et al., Wiley-Liss, Inc., 1996). The expressed proenzyme was first purified over a heparin agarose column, and then over a chelating zinc chloride column. Further details on baculovirus expression systems may be found in, for example, Luckow et al., J. Virol., 67, 4566-79 (1993). See also O'Reilly et al, Baculovirus Expression Vectors: A Laboratory Manual (W. H. Freeman and Co., New York, N.Y., 1992). See also King et al., The Baculovirus Expression System: A Laboratory Guide (Chapman & Hall, London, England, 1992).
All full length MMPs were activated using 4-aminophenylmercuric acetate (“APMA”, Sigma Chemical, St. Louis, Mo.) or trypsin. MMP-9 also was activated using human recombinant MMP-3 following standard cloning and purification techniques.
as §4, §5, §6
The inhibitors are analyzed using a single low enzyme concentration with a single substrate concentration fixed at or below the Km. This protocol is a modification of method by Knight et al., FEBS Lett., 296(3), 263-266 (1992). Apparent inhibitory constants are determined by non-linear regression of reaction velocity as a function of inhibitor and enzyme concentration using Morrison's equation, as described by Kuzmic, Anal. Biochem. 286, 45-50 (2000). […]

Human recombinant MMP-15 = target: T4, Human recombinant MMP-15 (Homo sapiens, UniProt P51511); test: In vitro MMP inhibition assay, MMP-15 catalytic domain (fluorogenic peptide substrate cleavage, Ki); conditions: human MMP-15, catalytic domain (CD); read-out: hMMP Ki 15/CD
T4 construct: The catalytic domain of MMP-12 and MMP-15 enzymes were purchased commercially for these assays; purchased
Method: as §1, §2, §3, §4, §5, §6, §7

[1] = target: T5, catalytic domain of human recombinant MMP-3 (Homo sapiens, UniProt P08254); test: In vitro MMP inhibition assay, MMP-3 catalytic domain (fluorogenic peptide substrate cleavage, Ki); conditions: human MMP-3, catalytic domain (CD); read-out: hMMP Ki 03/CD
T5 construct: made in house
Method: as §1, §2
The catalytic domain MMP-3 cDNA may be used to express the catalytic domain enzyme in E. coli inclusion bodies. Then the enzyme is solubilized in urea, purified on a preparative […] reverse phase HPLC column, and refolded in the presence of zinc acetate and purified for use.
The fluorogenic, methoxycoumarin-containing polypeptide substrate Mca-Arg-Pro-Lys-Pro-Val-Glu-Nva-Trp-Arg-Lys(Dnp)-NH2 (Bachem catalog number M-2110) was used as the MMP substrate in the MMP inhibition assays for catalytic domain of human recombinant MMP-3 (which refers to the catalytic domain of stromelysin). Here, “MCA” is 7-methoxycoumarin-4-yl acetyl and “Dpa” is 3-(2,4-dinitrophenyl)-L-2,3-di-aminopropionyl group. In the absence of MMP inhibitory activity, the substrate is cleaved at the Gly-Leu peptide bond. The cleavage separates the highly fluorogenic peptide from the 2,4-dinitrophenyl quencher, resulting in an increase of fluorescent intensity.
For the human MMP-3 assay, dilutions of the inhibitors (or salts thereof) were prepared in 100% DMSO. The stock solutions were diluted in Buffer B (50 mM N-morpholinoethane sulfonate (“MES”), 100 mM NaCl, 10 mM CaCl2, 0.005% polyoxyethylene 23 lauryl ether, pH 6.0)) to obtain solutions with different compound concentrations, i.e., assay solutions with different concentrations of the assayed MMP inhibitory compound in 1% DMSO. The experiment controls contained the same amount of Buffer B/DMSO as the assayed sample, but contained no inhibitor.
as §6, §7

T5 sequence (P08254 100-272 limits assumed): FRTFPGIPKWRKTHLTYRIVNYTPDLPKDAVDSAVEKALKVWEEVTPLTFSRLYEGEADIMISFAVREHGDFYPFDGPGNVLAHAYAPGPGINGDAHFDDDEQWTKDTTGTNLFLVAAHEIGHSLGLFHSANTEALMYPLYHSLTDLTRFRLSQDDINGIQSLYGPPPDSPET
T1 sequence (P39900 106-263 limits assumed): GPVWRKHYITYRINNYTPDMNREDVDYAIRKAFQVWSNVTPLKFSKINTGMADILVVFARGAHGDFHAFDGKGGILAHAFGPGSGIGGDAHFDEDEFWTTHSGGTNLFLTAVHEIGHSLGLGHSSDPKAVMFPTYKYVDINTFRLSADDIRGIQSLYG
T4 sequence (P51511 132-304 limits assumed): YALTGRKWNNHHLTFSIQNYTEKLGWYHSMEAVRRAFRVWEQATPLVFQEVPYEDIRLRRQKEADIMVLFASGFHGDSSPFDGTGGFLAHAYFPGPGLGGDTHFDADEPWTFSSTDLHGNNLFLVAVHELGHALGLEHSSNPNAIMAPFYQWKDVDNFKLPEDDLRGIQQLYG

Compound | Ki (Human recombinant MMP-12) | Ki (Human recombinant MMP-14) | Ki (Human recombinant MMP-13) | Ki (Human recombinant MMP-15) | Ki [1]
COc1cccc(CNC(=O)c2nc3scc(COC[C@@H]4CO[C@@H](CO)CO4)c3c(=O)[nH]2)c1 (relative stereo) [Example 7, N-(3-Methoxybenzyl)-5-(((trans-5-(hydroxymethyl)-1,4-dioxan-2-yl)methoxy)methyl)-4-oxo-3,4-dihydrothieno[2,3-d]pyrimidine-2-carboxamide] | > 10000 nM | > 10000 nM | 11.4 nM | > 10000 nM | 1640 nM
COc1cccc(CNC(=O)c2nc3scc(COCCC4CCN(S(C)(=O)=O)CC4)c3c(=O)[nH]2)c1 [Example 27, N-(3-methoxybenzyl)-5-({2-[1-(methylsulfonyl)piperidin-4-yl]ethoxy}methyl)-4-oxo-3,4-dihydrothieno[2,3-d]pyrimidine-2-carboxamide] | – | – | 1.78 nM | – | 779 nM
COc1cccc(CNC(=O)c2nc3scc(COCCC4CCN(C(C)=O)CC4)c3c(=O)[nH]2)c1 [Example 28, 5-([2-(1-Acetylpiperidin-4-yl)ethoxy]methyl)-N-(3-methoxybenzyl)-4-oxo-3,4-dihydrothieno[2,3-d]pyrimidine-2-carboxamide] | – | – | 3.13 nM | – | 787 nM
COc1cccc(CNC(=O)c2nc3ccc(F)c(OCCC4CCNCC4)c3c(=O)[nH]2)c1 [Example 30, 6-fluoro-N-(3-methoxybenzyl)-4-oxo-5-(2-piperidin-4-ylethoxy)-3,4-dihydroquinazoline-2-carboxamide] | – | – | 1.91 nM | – | 9420 nM
COc1cccc(CNC(=O)c2nc3ccc(F)c(OCCC4CCN(CCO)CC4)c3c(=O)[nH]2)c1 [Example 35, 6-fluoro-5-{2-[1-(2-hydroxyethyl)piperidin-4-yl]ethoxy}-N-(3-methoxybenzyl)-4-oxo-3,4-dihydroquinazoline-2-carboxamide] | – | – | 4.15 nM | – | 5200 nM

Now those with a lower Ki (Human recombinant MMP-13), led by results:

Ki (Human recombinant MMP-12) | Ki (Human recombinant MMP-14) | Ki (Human recombinant MMP-13) | Ki (Human recombinant MMP-15) | Ki [1] | Compound
> 10000 nM | > 10000 nM | 0.88 nM | > 10000 nM | 1350 nM | COc1cc(CNC(=O)c2nc3scc(COC[C@H]4CC[C@H](CO)CC4)c3c(=O)[nH]2)ccc1F [Example 9, N-(4-Fluoro-3-methoxybenzyl)-5-(((trans-4-(hydroxymethyl)cyclohexyl)methoxy)methyl)-4-oxo-3,4-dihydrothieno[2,3-d]pyrimidine-2-carboxamide]
– | – | 1.62 nM | – | 656 nM | COc1cccc(CNC(=O)c2nc3scc(COC[C@H]4CC[C@H](NC(C)=O)CC4)c3c(=O)[nH]2)c1 [Example 17, 5-({[trans-4-(Acetylamino)cyclohexyl]methoxy}methyl)-N-(3-methoxybenzyl)-4-oxo-3,4-dihydrothieno[2,3-d]pyrimidine-2-carboxamide]
– | – | 1.25 nM | – | 672 nM | COc1cccc(CNC(=O)c2nc3scc(COC[C@H]4CC[C@H](NC(=O)CO)CC4)c3c(=O)[nH]2)c1 [Example 21, N-(3-Methoxybenzyl)-5-((((trans-1,4)-4-(2-hydroxyacetamido)cyclohexyl)methoxy)methyl)-4-oxo-3,4-dihydrothieno[2,3-d]pyrimidine-2-carboxamide]
– | – | 0.582 nM | – | 453 nM | COc1cc(CNC(=O)c2nc3scc(COC[C@H]4CC[C@H](NC(=O)CO)CC4)c3c(=O)[nH]2)ccc1F [Example 23, N-(4-Fluoro-3-methoxybenzyl)-5-((((trans-1,4)-4-(2-hydroxyacetamido)cyclohexyl)methoxy)methyl)-4-oxo-3,4-dihydrothieno[2,3-d]pyrimidine-2-carboxamide]
– | – | 0.566 nM | – | 512 nM | COc1cccc(CNC(=O)c2nc3scc(COC[C@H]4CC[C@H](CNS(C)(=O)=O)CC4)c3c(=O)[nH]2)c1 [Example 25, N-(3-methoxybenzyl)-5-[({trans-4-[(methylsulfonyl)aminomethyl]cyclohexyl}methoxy)methyl]-4-oxo-3,4-dihydrothieno[2,3-d]pyrimidine-2-carboxamide]
– | – | 0.374 nM | – | 1600 nM | COc1cccc(CNC(=O)c2nc3ccc(F)c(OC[C@H]4CC[C@H](CO)CC4)c3c(=O)[nH]2)c1 [Example 29, 6-fluoro-5-{[trans-4-(hydroxymethyl)cyclohexyl]methoxy}-N-(3-methoxybenzyl)-4-oxo-3,4-dihydroquinazoline-2-carboxamide]
– | – | 0.085 nM | – | 1280 nM | COc1cccc(CNC(=O)c2nc3ccc(F)c(OCCC4CCN(S(C)(=O)=O)CC4)c3c(=O)[nH]2)c1 [Example 31, 6-fluoro-N-(3-methoxybenzyl)-5-{2-[1-(methylsulfonyl)piperidin-4-yl]ethoxy}-4-oxo-3,4-dihydroquinazoline-2-carboxamide]
– | – | 0.184 nM | – | 1950 nM | COc1cccc(CNC(=O)c2nc3ccc(F)c(OCCC4CCN(C(C)=O)CC4)c3c(=O)[nH]2)c1 [Example 32, 5-[2-(1-acetylpiperidin-4-yl)ethoxy]-6-fluoro-N-(3-methoxybenzyl)-4-oxo-3,4-dihydroquinazoline-2-carboxamide]
